In US8952157B2, “Apoptosis-inducing agents for the treatment of cancer and immune and autoimmune diseases” (AbbVie Inc., priority 2008, dated 2015):
Like-named read-outs stand apart in the source and are kept apart here.

Biological target: GST-Bcl-2 (Homo sapiens (Human), UniProt P10415)
Assay: Time Resolved-Fluorescence Resonance Energy Transfer (TR-FRET) Bcl-2 binding assay
How it was run: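 Ki values derived from TR-FRET displacement of F-Bak peptide from GST-Bcl-2, detected with Tb-labelled anti-GST antibody (ex 340, em 520/495 nm). Compound dilution series started at 50 μM (2× starting concentration); room-temperature incubation 3 hours.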

[1] = GST-Bcl-2 1 nM, F-Bak peptide probe 100 nM, Tb-anti-GST antibody 1 nM, Ki by Wang's equation

Sequence of GST-Bcl-2 (P10415 whole entry): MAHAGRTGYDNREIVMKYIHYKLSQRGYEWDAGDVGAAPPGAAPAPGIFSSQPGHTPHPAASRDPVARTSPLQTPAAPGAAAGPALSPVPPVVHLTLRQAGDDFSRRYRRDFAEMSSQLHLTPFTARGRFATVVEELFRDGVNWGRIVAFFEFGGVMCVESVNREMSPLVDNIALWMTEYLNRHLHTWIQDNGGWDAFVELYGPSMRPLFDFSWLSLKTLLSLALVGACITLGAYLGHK

Row | Compound | Ki [nM] | Ki [1] [nM]
1 | CC1(C)CCC(CN2CCN(c3ccc(C(=O)NS(=O)(=O)c4cnc(N[C@H]5CC[C@H](N6CCOCC6)CC5)c(Br)c4)c(Oc4cc5cc[nH]c5cc4F)c3)CC2)=C(c2ccc(Cl)cc2)C1 [Example 307, Trans-N-({5-bromo-6-[(4-morpholin-4-ylcyclohexyl)amino]pyridin-3-yl}sulfonyl)-4-(4-{[2-(4-chlorophenyl)-4,4-dimethylcyclohex-1-en-1-yl]methyl}piperazin-1-yl)-2-[(6-fluoro-1H-indol-5-yl)oxy]benzamide] | 0.524 | –
2 | CC1(C)CCC(CN2CCN(c3ccc(C(=O)NS(=O)(=O)c4ccc(NCC5CCOCC5)c([N+](=O)[O-])c4)c(Oc4cnc(N)c(Cl)c4)c3)CC2)=C(c2ccc(Cl)cc2)C1 [Example 318, 2-[(6-amino-5-chloropyridin-3-yl)oxy]-4-(4-{[2-(4-chlorophenyl)-4,4-dimethylcyclohex-1-en-1-yl]methyl}piperazin-1-yl)-N-({3-nitro-4-[(tetrahydro-2H-pyran-4-ylmethyl)amino]phenyl}sulfonyl)benzamide] | – | < 0.01
3 | CC1(C)CCC(CN2CCN(c3ccc(C(=O)NS(=O)(=O)c4ccc(NC5CCOCC5)c([N+](=O)[O-])c4)c(Oc4cc5cc[nH]c5cc4F)c3)CC2)=C(c2ccc(Cl)cc2)C1 [Example 251, 4-(4-{[2-(4-chlorophenyl)-4,4-dimethylcyclohex-1-en-1-yl]methyl}piperazin-1-yl)-2-[(6-fluoro-1H-indol-5-yl)oxy]-N-{[3-nitro-4-(tetrahydro-2H-pyran-4-ylamino)phenyl]sulfonyl}benzamide] | – | 0.435
4 | O=C(NS(=O)(=O)c1ccc(NCC2CCOCC2)cc1)c1ccc(N2CCN(Cc3ccccc3-c3ccc(Cl)cc3)CC2)cc1Oc1cccc([N+](=O)[O-])c1 [Example 77, 4-(4-((4′-chloro-1,1′-biphenyl-2-yl)methyl)piperazin-1-yl)-2-(3-nitrophenoxy)-N-((4-((tetrahydro-2H-pyran-4-ylmethyl)amino)phenyl)sulfonyl)benzamide] | – | 451
5 | CC1(C)CCC(CN2CCN(c3ccc(C(=O)NS(=O)(=O)c4ccc(NCC5CCOCC5)c([N+](=O)[O-])c4)c(Oc4cc5cc[nH]c5cc4Cl)c3)CC2)=C(c2ccc(Cl)cc2)C1 [Example 276, 2-[(6-chloro-1H-indol-5-yl)oxy]-4-(4-{[2-(4-chlorophenyl)-4,4-dimethylcyclohex-1-en-1-yl]methyl}piperazin-1-yl)-N-({3-nitro-4-[(tetrahydro-2H-pyran-4-ylmethyl)amino]phenyl}sulfonyl)benzamide] | – | 0.199
6 | Nc1ncc(Oc2cc(N3CCN(CC4=C(c5ccc(Cl)cc5)CCC5(CCN(C(CF)CF)CC5)C4)CC3)ccc2C(=O)NS(=O)(=O)c2ccc(NCC3CCOCC3)c([N+](=O)[O-])c2)cc1Cl [Example 391, 2-[(6-amino-5-chloropyridin-3-yl)oxy]-4-[4-({9-(4-chlorophenyl)-3-[2-fluoro-1-(fluoromethyl)ethyl]-3-azaspiro[5.5]undec-8-en-8-yl}methyl)piperazin-1-yl]-N-({3-nitro-4-[(tetrahydro-2H-pyran-4-ylmethyl)amino]phenyl}sulfonyl)benzamide] | – | < 0.01
7 | Nc1cccc(Oc2cc(N3CCN(Cc4ccccc4-c4ccc(Cl)cc4)CC3)ccc2C(=O)NS(=O)(=O)c2ccc(NCC3CCOCC3)c([N+](=O)[O-])c2)c1 [Example 19, 2-(3-aminophenoxy)-4-(4-((4′-chloro-1,1′-biphenyl-2-yl)methyl)piperazin-1-yl)-N-((3-nitro-4-((tetrahydro-2H-pyran-4-ylmethyl)amino)phenyl)sulfonyl)benzamide] | – | 1.68
8 | CN1CCC(Nc2ccc(S(=O)(=O)NC(=O)c3ccc(N4CCN(CC5=C(c6ccc(Cl)cc6)CC(C)(C)CC5)CC4)cc3Oc3cccc(Cl)c3Cl)cc2[N+](=O)[O-])CC1 [Example 54, 4-(4-((2-(4-chlorophenyl)-4,4-dimethylcyclohex-1-en-1-yl)methyl)piperazin-1-yl)-2-(2,3-dichlorophenoxy)-N-((4-((1-methylpiperidin-4-yl)amino)-3-nitrophenyl)sulfonyl)benzamide] | – | 0.082
9 | CC1(C)CCC(CN2CCN(c3ccc(C(=O)NS(=O)(=O)c4ccc(NCC5CCOCC5)c([N+](=O)[O-])c4)c(Oc4cc(NC(=O)OC(C)(C)C)ncc4Br)c3)CC2)=C(c2ccc(Cl)cc2)C1 [Example 383, tert-butyl 5-bromo-4-(5-(4-{[2-(4-chlorophenyl)-4,4-dimethylcyclohex-1-en-1-yl]methyl}piperazin-1-yl)-2-{[({3-nitro-4-[(tetrahydro-2H-pyran-4-ylmethyl)amino]phenyl}sulfonyl)amino]carbonyl}phenoxy)pyridin-2-ylcarbamate] | – | 427
10 | CC1(C)CCC(CN2CCN(c3ccc(C(=O)NS(=O)(=O)c4ccc(NCC5CCOCC5)c([N+](=O)[O-])c4)c(Oc4ccc(NC5CC5)nc4)c3)CC2)=C(c2ccc(Cl)cc2)C1 [Example 374, 4-(4-{[2-(4-chlorophenyl)-4,4-dimethylcyclohex-1-en-1-yl]methyl}piperazin-1-yl)-2-{[6-(cyclopropylamino)pyridin-3-yl]oxy}-N-({3-nitro-4-[(tetrahydro-2H-pyran-4-ylmethyl)amino]phenyl}sulfonyl)benzamide] | – | 5.34
11 | COc1cccc(Oc2cc(N3CCN(CC4=C(c5ccc(Cl)cc5)CC(C)(C)CC4)CC3)ccc2C(=O)NS(=O)(=O)c2ccc(NC3CCN(C)CC3)c([N+](=O)[O-])c2)c1 [Example 166, 4-(4-{[2-(4-chlorophenyl)-4,4-dimethylcyclohex-1-en-1-yl]methyl}piperazin-1-yl)-2-(3-methoxyphenoxy)-N-({4-[(1-methylpiperidin-4-yl)amino]-3-nitrophenyl}sulfonyl)benzamide] | – | 0.082
12 | CN1CCN(Nc2ccc(S(=O)(=O)NC(=O)c3ccc(N4CCN(CC5=C(c6ccc(Cl)cc6)CC(C)(C)CC5)CC4)cc3Oc3ccc(O)cc3Cl)cc2S(=O)(=O)C(F)(F)F)CC1 [Example 211, 2-(2-chloro-4-hydroxyphenoxy)-4-(4-{[2-(4-chlorophenyl)-4,4-dimethylcyclohex-1-en-1-yl]methyl}piperazin-1-yl)-N-({4-[(4-methylpiperazin-1-yl)amino]-3-[(trifluoromethyl)sulfonyl]phenyl}sulfonyl)benzamide] | – | 1.34
13 | CC1(C)CCC(CN2CCN(c3ccc(C(=O)NS(=O)(=O)c4ccc(NCC5CCOCC5)c([N+](=O)[O-])c4)c(Oc4cncc(N)c4)c3)CC2)=C(c2ccc(Cl)cc2)C1 [Example 279, 2-[(5-aminopyridin-3-yl)oxy]-4-(4-{[2-(4-chlorophenyl)-4,4-dimethylcyclohex-1-en-1-yl]methyl}piperazin-1-yl)-N-({3-nitro-4-[(tetrahydro-2H-pyran-4-ylmethyl)amino]phenyl}sulfonyl)benzamide] | – | 1.7
14 | CC1(C)CCC(CN2CCN(c3ccc(C(=O)NS(=O)(=O)c4ccc(NCC5CCOCC5)c([N+](=O)[O-])c4)c(Oc4ccc5[nH]cc(CCN)c5c4)c3)CC2)=C(c2ccc(Cl)cc2)C1 [Example 299, 2-{[3-(2-aminoethyl)-1H-indol-5-yl]oxy}-4-(4-{[2-(4-chlorophenyl)-4,4-dimethylcyclohex-1-en-1-yl]methyl}piperazin-1-yl)-N-({3-nitro-4-[(tetrahydro-2H-pyran-4-ylmethyl)amino]phenyl}sulfonyl)benzamide] | – | 51.7
